Laboratory results published in patent US5827895A, “Hexahydrolupulones useful as anticancer agents” (Regents of the University of Minnesota, priority 1996, dated 1998).
In brackets after ≈: the same amount, converted by molar mass. Where two headings read alike, the source gives them in different places.

How the values were obtained:
Pseudomonas = assay: Minimum inhibitory concentration, Pseudomonas
E. Coli = assay: Minimum inhibitory concentration, E. coli; conditions: Escherichia coli
[1] = test system: DNA, RNA or protein synthesis; assay: Other studies on DNA, RNA or protein synthesis in cancer cells; type: cell-based
[2] = Determination of maximal tolerated dose (MTD), single intraperitoneal injection; conditions: mouse, in vivo, ip
Protocol: (§1) Eight groups of BDF1 mice (5 animals/group) were used to determine a maximal tolerated dose (MTD) for HHC.
(§2) All mice were weighed, the weight being used to determine blood volume for each animal. The amount of drug necessary to achieve a theoretical concentration of drug in the animal (e.g, 50, 100, 150 μM etc.) was calculated based on the formula: blood volume=8% body weight of the animal. Drug solutions were made using DMSO as the solvent and a single intraperitoneal injection of a volume of 100-120 μl was given. […] Based on the above, the MTD is determined to be at 200 μM (~6.5 mg/kg). To confirm the MTD, it is necessary to dose the animals with the predetermined MTD once a day for consecutive days following established experimental treatment times (i.e., 5 days for in vivo tumor inhibition studies).

BDF1 mice = assay: as above; conditions: mouse, in vivo, ip
Protocol: as §1, §2

[3] = test system: M. tuberculosis (ATCC 27294); assay: BACTEC drug susceptibility, M. tuberculosis; type: cell-based; conditions: Mycobacterium tuberculosis, ATCC27294
[4] = test system: MRSA (Methicillin Resistant Staphylococcus aureus); assay: Patient isolates evaluated for antibiotic sensitivity, MRSA; conditions: for antibiotic sensitivity: threshold not given
[5] = test system: VRE (Vancomycin Resistant Enterococcus faeclum); conditions: threshold not given
[6] = Mannering et al.; cited from earlier work
MCF-7 cells = assay: Colony formation (clonogenic) assay, cytotoxic activity, 18 hour pulse exposure; type: cell-based; conditions: Homo sapiens, MCF7, 2 experiments, read-out: ID50 (the source's name)
Protocol: HHC was tested for cytotoxic activity using a colony formation assay, using an 18 hour pulse exposure. The purpose of the clonogenic assay is to determine the concentration of HHC at which 50% of cell growth is inhibited (i.e., IC50) when cells are exposed to the HHC for a defined amount of time (i.e., a pulse exposure to the xenobiotic).
Five ml of a mixture of 2×10^5 cells/ml (MCF-7 cells) were placed in each of 4 T-25 flasks in a media of RPMI (Gibco). The cells were incubated at 37 ° C. under 5% CO2 for a minimum of 14 hours to allow the cells to attach. The cells were pulsed for 18 hours with HHC concentrations of 0, 1.5, and 25 μM, or with DMSO.
The media was removed from the flasks (i.e., media with floating cells) and placed in 15 ml polypropylene centrifuge tubes 1-4 (summarized in Table II). […]
The cells in the original cell suspension (i.e., in the flask) were counted using trypan blue exclusion assay (described in Example II). Based on this count, the number of cells in the 50x tubes were calculated. The volume necessary to acquire approximately 5400 cells was then determined. […]
Five ml of suspension from each of tubes 13-16 was transferred to 60×15 mm tissue culture dishes (in triplicate). […] The cells were counted in those colonies which consisted of at least 50 cells. The ID50 was determined as described in Example II.

[7] = test system: VRE (Vancomycin Resistant Enterococcus faeclum); assay: microbe, parasite or virus in culture
Protocol: HHC was also tested for effectiveness against various bacterial isolates obtained from human subjects.

Staphylococcus Aureas = assay: Minimum inhibitory concentration, Staphylococcus aureus; type: cell-based
[8] = test system: HeLa S3 cells (human cervical epithelioid carcinoma); assay: Trypan blue exclusion assay, cytostatic activity, HeLa S3; type: cell-based; conditions: incubation 24h, 3 experiments, read-out: ID50 (the source's name)
[9] = test system: CEM vinblastin resistant cells; assay: Trypan blue exclusion assay, cytostatic activity, CEM vinblastin resistant; type: cell-based; conditions: Homo sapiens; CEM vin resistant; incubation 48h; 4 experiments; read-out: ID50 (the source's name)
[10] = test system: C1300 cells (mouse neuroblastoma); assay: In vitro ID50 in C1300 mouse neuroblastoma cells; type: cell-based; conditions: Neuroblastoma cell; 48 hours of continuous exposure; preliminary data
Protocol: C1300 cells (mouse neuroblastoma), a murine tumor cell model which is sensitive to HHC were evaluated.

[11] = test system: MRSA (Methicillin resistant Staphylococcus A.); assay: Minimum inhibitory concentration, MRSA; type: cell-based, Staphylococcus aureus
Listeria monocytogenes = conditions: U.S. Pat. Nos. 5,286,506; 5,455,038; cited from earlier work

SMILES: CC(C)CCC1=C(O)C(C(=O)C(C)C)=C(O)C(CCC(C)C)(CCC(C)C)C1=O [HHC, hexahydrocolupulone]
- MIC (Pseudomonas): > 100 µM
- MIC (E. Coli): > 100 µM
- MIC (E. Coli; read-out: MIC, HHC negative control): 100 µg/mL
- cytotoxic effect on cancer cells: effects upon DNA, RNA or protein synthesis [1]: not due to major effects upon DNA, RNA or protein synthesis
- MTD [2]: ~6.5 mg/kg
- maximal tolerated dose (MTD) (BDF1 mice): 200 µM
- inhibition at 50 µM ([3]; 50 μM, read-out: inhibition of tuberculosis growth): > 99%
- inhibition at 100 µM ([3]; 100 μM, read-out: inhibition of TB growth): 100%
- MIC ([4]; Staphylococcus aureus, read-out: [HHC] (MIC)): 1.01 µg/mL (≈ 2.5 µM)
- antibiotic sensitivity ([4]; patient D): S
- [HHC] (MIC) ([4]; patient E): 1.015 µg/mL
- antibiotic sensitivity ([4]; patient E): S
- [HHC] (MIC) ([4]; patient F): 1.015 µg/mL
- antibiotic sensitivity ([4]; patient F): S
- antibiotic sensitivity ([5]; patient A): S
- antibiotic sensitivity ([5]; patient B): S
- antibiotic sensitivity ([5]; patient C): S
- activity relative to non-hydrogenated parent [6]: more active than colupulone
- IC50 (MCF-7 cells): 1.62 µM
- MIC ([7]; read-out: [HHC] (MIC), patient A, VRE): 1.01 µg/mL (≈ 2.5 µM)
- MIC ([7]; read-out: [HHC] (MIC), patient B, VRE): 4.06 µg/mL (≈ 9.99 µM)
- MIC ([7]; read-out: [HHC] (MIC), patient C, VRE): 2.03 µg/mL (≈ 4.99 µM)
- MIC (Staphylococcus Aureas; Staphylococcus Aureas, read-out: MIC): 5 µM
- MIC (Staphylococcus Aureas; read-out: MIC, HHC positive control): 2.03 µg/mL
- IC50 [8]: 1.21 µM
- IC50 [9]: 2.61 µM
- IC50 [10]: ~1.94 µM
- MIC ([11]; MRSA): 2.5 µM (≈ 1.02 µg/mL)
- cross resistance with other antibiotics ([11]; drug resistant MRSA): HHC is not
- growth inhibition of food pathogens (Listeria monocytogenes): can inhibit the growth of food pathogens, such as Listeria monocytogenes
